Data reported in patent publication US8575179B2, “Dihydropyrazolopyrimidinone derivatives” (MSD K.K., priority 2008, dated 2013).

Legend:
Wee1 kinase = target: T1, Wee1 kinase (Homo sapiens, UniProt P30291); test: Wee1 kinase inhibitory effect (Pharmacological Test 1); format: biochemical; settings: GST-tagged Wee1 kinase, Poly(Lys, Tyr) substrate, 10 μM ATP, 30° C. for 30 minutes
T1 construct: made in house; host or cells: Sf9 insect cells (recombinant baculovirus)
Source text: Pharmacological Test 1 (Wee1 Kinase Inhibitory Effect)
A cDNA of Wee1 kinase with glutathione-S-transferase (GST) fused at the amino terminal thereof was inserted into a baculovirus expression vector to construct a recombinant baculovirus, with which cells of an insect cell line Sf9 were infected to overexpress the target protein. The infected cells were collected and lysed, and then the GST-tagged Wee1 kinase protein was adsorbed to a glutathione column and eluted from the column with glutathione, and the active fraction was desalted in a desalting column to give a purified enzyme.
In measurement of the Wee1 kinase activity, a synthetic peptide, Poly(Lys, Tyr) hydrobromide (Lys:Tyr (4:1)) purchased from Sigma was used as the substrate.
The amount of the reaction mixture was 21.1 μL; and the composition of the reaction buffer was 50 mM Tris-HCl buffer (pH 7.4)/10 mM magnesium chloride/1 mM dithiothreitol. The purified Wee1 kinase, 2.5 μg of the substrate peptide, 10 μM of non-labeled adenosine triphosphate (ATP) and 1 μCi of [γ-^33P]-labeled ATP (2500 Ci/mmol or more) were added to the reaction buffer, and the resulting mixture was incubated at 30° C. for 30 minutes. Thereafter, 10 μL of 350 mM phosphate buffer was added to the reaction system to stop the reaction. The substrate peptide was adsorbed on a P81 paper filter 96-well plate and the plate was washed several times with 130 mM phosphate buffer, and the radioactivity thereof was counted using a liquid scintillation counter. The [γ-^33P]-labeled ATP was purchased from Amersham Bioscience, Ltd.
The addition of a test compound to the reaction system was carried out by preparing a series of dilutions of the compound with dimethyl sulfoxide (DMSO) and adding 1.1 μL of each dilution to the reaction system. As a control, 1.1 μL of DMSO was added to the reaction system.

[1] = system: Cdc2 (Cdk1) tyrosine-15 phosphorylation in NCI-H1299 cells; test: Inhibitory effect on Cdc2 (Cdk1) tyrosine-15 phosphorylation in cells (Pharmacological Test 2, ELISA); format: cell-based; settings: Homo sapiens; NCI-H1299 cells pretreated with 200 nM camptothecin for 16 hours, test compound with nocodazole for 8 hours; ratio of tyrosine-15-phosphorylated Cdc2 to Cdc2
Source text: Pharmacological Test 2 (Method for Determining Drug Effect Using Cells (Inhibitory Effect on Cdc2 (Cdk1) Tyrosine-15 Phosphorylation))
Fetal bovine serum (FBS) was purchased from Morgate, Inc.; an RPMI-1640 medium and a DMEM medium were purchased from Invitrogen, Inc.; camptothecin was purchased from Sigma Co.; gemcitabine was purchased from Eli Lilly Japan K.K.; nocodazole and protease inhibitor cocktail were purchased from Sigma Co.; a rabbit anti-Cdc2 antibody and a mouse anti-Cdc2 antibody were purchased from Santa Cruz Biotechnology, Inc.; a rabbit anti-tyrosine-15-phosphorylated Cdc2 antibody and a horseradish peroxidase-labeled anti-mouse IgG antibody were purchased from Cell Signaling Technology, Inc.; and Sure Blue Reserve TMB peroxidase substrate was purchased from Kirkegaard & Perry Laboratories, Inc.
A human non-small cell lung cancer cell line (NCI-H1299) and a human colon cancer cell line (WiDr) can be obtained from American Type Culture Collection (ATCC).
In the method using NCI-H1299 cells, the cells were suspended in an RPMI-1640 medium supplemented with 10% FBS, and 100 μl, of the resulting cell suspension was dispensed in a Nunclon Delta treated 96-well plastic plate purchased from Nunc, Inc. at a density of 2000 cells per well, and the plate was incubated overnight at 37° C. under an atmosphere of 5% CO2 and 95% air. Camptothecin was dissolved in dimethyl sulfoxide (DMSO) and further the resulting solution was diluted with an RPMI-1640 medium supplemented with 10% FBS. Then, 50 μL of the diluted solution was added to each well of the plate in which the cells were seeded in advance such that the final concentration of camptothecin was 200 nM, and the plate was incubated at 37° C. under an atmosphere of 5% CO2 and 95% air for 16 hours. A test compound was serially diluted with DMSO, and further diluted with an RPMI-1640 medium supplemented with 10% FBS containing 4000 nM nocodazole. Then, 50 μL of the test compound solution was added to each well of the plate in which the cells treated with camptothecin were seeded, and the plate was incubated at 37° C. under an atmosphere of 5% CO2 and 95% air for 8 hours. Then, the culture medium was removed from each well and 100 μL of a cell lysis buffer was added to each well, and the plate was shaken at 4° C. for 2 hours, and thereafter the liquid in the plate was frozen at −80° C. and then thawed, which was used as a lysed cell solution. Cdc2 and tyrosine-15-phosphorylated Cdc2 in this lysed cell solution were measured by an enzyme-linked immunosorbent assay (ELISA method), and a ratio of tyrosine-15-phosphorylated Cdc2 to Cdc2 was calculated to determine a 50% effective concentration (EC50, nM) of the test compound for inhibition of phosphorylation in cells. […]

T1 sequence (P30291 whole entry): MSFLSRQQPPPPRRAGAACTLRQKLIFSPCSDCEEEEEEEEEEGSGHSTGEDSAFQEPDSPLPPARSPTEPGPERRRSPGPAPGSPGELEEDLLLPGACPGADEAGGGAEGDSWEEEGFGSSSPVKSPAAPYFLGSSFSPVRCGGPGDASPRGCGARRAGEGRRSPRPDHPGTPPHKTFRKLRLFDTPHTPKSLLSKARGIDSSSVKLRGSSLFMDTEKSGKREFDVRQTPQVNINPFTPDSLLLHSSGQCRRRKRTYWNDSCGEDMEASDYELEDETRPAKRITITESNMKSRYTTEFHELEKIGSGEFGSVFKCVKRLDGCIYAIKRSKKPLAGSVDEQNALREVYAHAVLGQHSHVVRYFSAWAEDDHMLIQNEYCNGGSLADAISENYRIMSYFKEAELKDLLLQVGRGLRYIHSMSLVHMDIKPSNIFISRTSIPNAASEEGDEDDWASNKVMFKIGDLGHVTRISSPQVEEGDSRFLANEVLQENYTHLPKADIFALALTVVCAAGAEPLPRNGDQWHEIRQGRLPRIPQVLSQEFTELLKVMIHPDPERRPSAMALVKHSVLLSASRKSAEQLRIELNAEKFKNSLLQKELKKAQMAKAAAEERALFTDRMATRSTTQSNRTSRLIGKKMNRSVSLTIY

| Structure (SMILES) | IC50 (Wee1 kinase) [nM] | IC50 [1] [nM] |
| --- | --- | --- |
| COC(C)(C)C(=O)N1CCN(c2ccc(Nc3ncc4c(=O)n(-c5c(Cl)cccc5Cl)c(=O)[nH]c4n3)cc2)CC1 [Example 33, 3-(2,6-dichlorophenyl)-7-({4-[4-(2-methoxy-2-methylpropionyl)piperazin-1-yl]phenyl}amino)pyrimido[4,5-d]pyrimidine-2,4(1H,3H)-dione] | 9 |  |
| CN1CCN(c2ccc(Nc3ncc4c(=O)n(-c5c(Cl)cccc5Cl)c(=O)n(C)c4n3)cc2)CC1 [Example 4, 3-(2,6-dichlorophenyl)-1-methyl-7-{[4-(4-methylpiperazin-1-yl)phenyl]amino}pyrimido[4,5-d]pyrimidine-2,4(1H,3H)-dione] | 33 | 33 |
| O=C(CO)N1CCN(c2ccc(Nc3ncc4c(=O)n(-c5c(Cl)cccc5Cl)c(=O)[nH]c4n3)cc2)CC1 [Example 32, 3-(2,6-dichlorophenyl)-7-({4-[4-(hydroxyacetyl)piperazin-1-yl]phenyl}amino)pyrimido[4,5-d]pyrimidine-2,4(1H,3H)-dione] | 6 |  |
| CN1CCCN(c2ccc(Nc3ncc4c(=O)n(-c5c(Cl)cccc5Cl)c(=O)[nH]c4n3)cc2)CC1 [Example 31, 3-(2,6-dichlorophenyl)-7-{[4-(4-methyl-1,4-diazepan-1-yl)phenyl]amino}pyrimido[4,5-d]pyrimidine-2,4(1H,3H)-dione] | 4 |  |

Further lines, results first:

| IC50 (Wee1 kinase) [nM] | IC50 [1] [nM] | Structure (SMILES) |
| --- | --- | --- |
| 7 | 87 | Cc1cc(Nc2ncc3c(=O)n(-c4c(Cl)cccc4Cl)c(=O)[nH]c3n2)ccc1N1CCN(C)CC1 [Example 1, 3-(2,6-dichlorophenyl)-7-{[3-methyl-4-(4-methylpiperazin-1-yl)phenyl]amino}pyrimido[4,5-d]pyrimidine-2,4(1H,3H)-dione] |
| 9 | 79 | Cc1cc(Nc2ncc3c(=O)n(-c4c(C)cccc4Cl)c(=O)[nH]c3n2)ccc1N1CCN(C)CC1 [Example 2, 3-(2-chloro-6-methylphenyl)-7-{[3-methyl-4-(4-methylpiperazin-1-yl)phenyl]amino}pyrimido[4,5-d]pyrimidine-2,4(1H,3H)-dione] |
| 8 | 45 | Cc1cc(Nc2ncc3c(=O)n(-c4c(Cl)cccc4Cl)c(=O)n(C)c3n2)ccc1N1CCN(C)CC1 [Example 3, 3-(2,6-dichlorophenyl)-1-methyl-7-{[3-methyl-4-(4-methylpiperazin-1-yl)phenyl]amino}pyrimido[4,5-d]pyrimidine-2,4(1H,3H)-dione] |
| 4 |  | CC(=O)N1CCN(c2ccc(Nc3ncc4c(=O)n(-c5c(Cl)cccc5Cl)c(=O)[nH]c4n3)cc2C)CC1 [Example 9, 7-{[4-(4-acetylpiperazin-1-yl)-3-methylphenyl]amino}-3-(2,6-dichlorophenyl)pyrimido[4,5-d]pyrimidine-2,4(1H,3H)-dione] |
